Experiment in all cases: DTP human tumour cell line panel, 48 h
In test [1] the test system is U-251.
In test [2] the test system is UACC-62.
In test [3] the test system is MDA-MB-435.
Test [4] has as its system SK-MEL-2.
In test [5] the test system is NCI-H23.
The test system of test [6] is SN12C.
The test system of test [7] is SR.
Test [8] deals with SW-620.
Test [9] relates to COLO 205.
Test [10] deals with HT-29.
The test system of test [11] is Hs-578T.
For test [12], the system named is HOP-92.
Test [13] deals with LOX IMVI.
Test [14] has as its system SF-295.
The test system of test [15] is UO-31.
Test [16] has as its system A549.
Test [17] has as its system OVCAR-3.
The subject of test [18] is SK-MEL-5.
Test [19] concerns HCT-116.
Test [20] relates to NCI/ADR-RES.

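Growth conditions: 96-well plates. Treatment: test compound, 48 hours, 5 concentrations. Analysis: linear interpolation between bracketing concentrations; unreached endpoints set to highest concentration. GI50: concentration for 50% inhibition of growth.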 Active and inactive are the calls of the source. Cut-off read from the data, not from the text of the source: active = GI50 up to about 1.1 µM and inactive = higher. Some results are limits rather than exact numbers.

The term GI50 denotes the concentration at which growth is held to half of that of the control. Regarding `N#CC(C#N)=Cc1c[nH]c(=O)[nH]c1=O`, the GI50 in [1], in [2], in test [3], in test [4], in test [5] and in test [6] was > 100 µM (inactive) each time. Also, the GI50 was 0.152 µM (active) in test [7]; 54.2 µM (inactive) in test [8]; > 100 µM (inactive) in test [9]; > 100 µM (inactive) in [10]; > 100 µM (inactive) in test [11]; > 100 µM (inactive) in test [12]. Besides, the GI50 in [13], in test [14], in test [15], in test [16], in test [17] and in test [18] was > 100 µM (inactive) throughout. For the same compound, the GI50 in [19] and in [20] was > 100 µM (inactive) throughout.

`COc1ccc(OC)c(C(=O)/C=C/c2cc(O)c(O)cc2F)c1`: the GI50 in [1] is 0.486 µM (active); in test [2], 0.701 µM (active); in test [3] it was 0.219 µM (active); in [4], 1.02 µM (active); in test [5], 0.535 µM (active); in test [6] it was 0.417 µM (active). Besides, the GI50 was 0.227 µM (active) in test [7]; 0.845 µM (active) in test [8]; 15.5 µM (inactive) in [9]; 7.14 µM (inactive) in test [10]; 0.424 µM (active) in [11]; 10.1 µM (inactive) in test [12]. Also, the 50% growth inhibitory concentration (GI50) is 0.69 µM (active) in test [13]; 1.33 µM (inactive) in [14]; 2.66 µM (inactive) in test [15]; 9.57 µM (inactive) in test [16]; 0.18 µM (active) in [17]; 0.558 µM (active) in test [18]. The 50% growth inhibitory concentration (GI50) in [19] was 0.47 µM (active); in [20], 0.412 µM (active).

Turning to `N#CC1=C(N)C(C#N)(C#N)C(c2ccc(F)cc2)C=C1C1CC1` (stereo not given), the GI50 was 5.68 µM (inactive) in test [1]; 8.24 µM (inactive) in test [2]; 3.22 µM (inactive) in [3]; 6.52 µM (inactive) in test [4]; 4.22 µM (inactive) in test [5]; 2.72 µM (inactive) in [6]. The GI50 in [7] is 3.27 µM (inactive); in test [8], 6.95 µM (inactive); in test [9], 12.4 µM (inactive); in test [10], 6.12 µM (inactive); in [11], 16.5 µM (inactive); in [12], 11.9 µM (inactive). Moreover, the GI50 is 3.94 µM (inactive) in test [13]; 11.2 µM (inactive) in [14]; 14 µM (inactive) in [15]; 13.8 µM (inactive) in [16]; 5.27 µM (inactive) in test [17]; 4.46 µM (inactive) in test [18]. Further, the GI50 is 4.01 µM (inactive) in test [19] and 14.5 µM (inactive) in test [20].

Turning to `CCOC(=O)C1=CN/C(=C(/C)C(=O)OC)SC1C(=O)OCC` (stereo not given), the GI50 in test [1], in test [2], in [3], in test [4], in [5] and in [6] was > 100 µM (inactive) each time. For the same compound, the GI50 was 47.8 µM (inactive) in [7]; > 100 µM (inactive) in test [8]; > 100 µM (inactive) in [9]; > 100 µM (inactive) in test [10]; > 100 µM (inactive) in test [11]; > 76.9 µM (inactive) in test [12]. Further, the GI50 in [13] was > 100 µM (inactive); in test [14], > 100 µM (inactive); in test [15], > 78.5 µM (inactive); in test [16] it was > 100 µM (inactive); in test [17], > 100 µM (inactive); in test [18], 58.3 µM (inactive). In addition, the GI50 in test [19] was > 100 µM (inactive); in [20], > 84.3 µM (inactive).

These data come from ChEMBL document CHEMBL1201862, “PubChem BioAssay data set” (2004).
